Tests used:
[1] = target: T1, Enterobacter cloacae P99 β-lactamase (Enterobacter cloacae, UniProt P05364); type: biochemical; details: values in parentheses, second order rate constant for inhibition
T1 construct: purchased Porton Down, Wiltshire, U.K
Method: To evaluate the inhibitors and the methods of the invention, representative inhibitors preparations were tested using class A (TEM-2 plasmid TEM)) β-lactamase and class C (Enterobacter cloacae P99 β-lactamase) β-lactamases (Porton Down, Wiltshire, U.K.) as well as representative DD-peptidases/carboxydases (e.g., Streptomyces R61 DD-peptidases) as the assayed enzyme.
Steady state kinetic parameters were directly obtained for representative inhibitors with the P99 β-lactamase with TEM β-lactamase by standard methods (e.g., Wilkinson, Biochem J. 80:324–332 (1989)) from spectrophotometric initial velocity measurements. Kinetic parameters were also obtained for DD-peptidase as the assayed enzyme, according to standard methods using hyppuryl-DL-phenyl-lactate (a known DD-peptidase substrate) (e.g. Govardhan and Pratt, Biochemistry 26:3385–3395 (1987)). The concentration of stock enzyme solutions were determined spectrophotometrically (e.g., Xu, et al., Biochemistry 35:[…] (1996)).
Representative class C and a class A β-lactamases were inhibited by representative inhibitors of Formulae I and II in a time-dependent fashion as described by the relation:
Representative inhibitors of the invention having Formula I may act by forming a covalent bond between β-lactamases and the inhibitor (i.e., irreversible inhibition). This type of inhibition is therefore time dependent. It is distinguished from reversible inhibition in so far that the backward reaction is extremely slow. […] Thus, irreversible inhibition is measured by how fast the event takes place (rate constant ki). Thus, inhibitory efficiency is expressed by large ki values.
Representative inhibitors of Formula I may also act by forming a transient acyl-enzyme intermediate. Inhibition results from a slow turn over, (de-acylation) of the intermediate.
In Table 3, kcat/km values are presented in plain text, with ki values for representative inhibitors appearing in parentheses. […]

[2] = target: TEM-2 plasmid (TEM) β-lactamase (Escherichia coli, UniProt P62593, Q37K); type: biochemical; details: values in parentheses
[3] = target: T1, Enterobacter cloacae P99 β-lactamase; test: Inhibition of P99 β-lactamase, nitrocefin assay (IC50); type: biochemical; details: nitrocefin substrate, 20 mM MOPS pH 7.50
Method: The enzyme (Enterobacter cloacae P99 β-lactamase) was dissolved to a concentration of 1 mg/mL in 20 mM MOPS buffer at pH 7.50, and then diluted 200-fold in the same buffer containing 0.1% BSA. The commercially available substrate nitrocefin was added as a 100 μM stock solution in 20 mM MOPS buffer, and inhibitors were also added as solutions in MOPS buffer. In a typical assay the following amounts were used: 300 μL of nitrocefin, 10 μL of P99 β-lactamase, x μL of inhibitor, and […] of MOPS buffer. Enzyme activity was measured at 25 EC, and the reaction was monitored spectrophotometrically at 482 nm. IC50 values were determined from the dose-response plots of the initial reaction rate vs. inhibitor concentration.

[4] = Spontaneous hydrolysis in neutral aqueous solution; type: physicochemical; details: for spontaneous hydrolysis, in words: neutral aqueous solution, relative to most compounds of the invention
Method: The cyclic phosphoryl chloride (500 mg; 2.3 mmol) was suspended in 60 mL of anhydrous acetonitrile (Aldrich, Sure/Seal) and water (41 μL, 2.3 mmol) added with magnetic stirring. The mixture was then gently warmed until the crystals of the starting material disappeared (ca. 5 min.). Two molar equivalents of redistilled dicyclohexylamine (913 μL) were then added. The immediately precipitating solid ([…]) was removed by vacuum filtration and the remaining solvent by rotary evaporation.

[5] = test system: Ent. Cloacae; test: Microbiological testing: potentiation of β-lactam antibiotic; type: cell-based; details: compound at 100 μg/mL
Text: (§1) To test the inhibitors of the invention, a wide range of organisms are used to assess compounds according to the invention; both as antibiotics and as β-Lactamase inhibitors: Initial screening for antibiotic activity utilizes penicillin sensitive S. aureus [ATTC# 25923], ampicillin sensitive H. influenzae [ATCC#10211] and clinical laboratory isolates of ampicillin sensitive E. faecalis and H. influenzae, and non-resistant P. aeruginosa. Initial studies utilize, in microtiter wells, 1 microgram of compound in 10 microliters diluted stock solution, 41,100 CFU of bacteria in 10 microliters broth solution and 80 microliters CAMHB. The count verification well contains 10 microliters CAMHB in place of the test compound. […] Microbiological and enzymatic testing is carried on duplicate plates with negative control plates.
(§2) Compounds were tested at a concentration of 100 μg/mL.
(§3) In Table 5, the microorganism tested against is shown in italics, while the antibiotic agent used is shown in plain text. […] When determined, the number in parentheses indicates the fold reduction in the MIC of the antibiotic agent when measured in the presence of the inhibitor of the invention.

[6] = test system: Haemophilus Influenzae; test: as above; type: cell-based; details: Ticarcillin, compound at 100 μg/mL
Text: as §1, §2, §3

[7] = test system: Staph. Aureaus; test: as above; type: cell-based; details: Piperacillin, compound at 100 μg/mL
Text: as §1, §2, §3

Row | Compound | ki [1] | further results
1 | CCCCCCP(=O)(O)OC(=O)c1ccccc1 [Compound XXII] | 0.0226(11.1 ± 0.1) s^−1 M^−1 | –
2 | O=C(OP(=O)(O)Oc1ccccc1)c1cc2ccccc2s1 [Compound XXVI] | ≤ 5 s⁻¹ M⁻¹ | –
3 | O=C(OP(=O)(O)Oc1ccccc1)c1ccccc1 [XIII, sodium benzoyl phenyl phosphate] | – | ki [2]: 0.001(0.2) s^−1 M^−1
4 | O=C(Cc1ccccc1)OP(=O)(O)Oc1ccccc1 [Compound X] | ≤ 0.04 s⁻¹ M⁻¹ | IC50 [3]: 30 µM; spontaneous hydrolysis, in words [4]: shorter half-lives
5 | O=C1OP(=O)(O)Oc2ccccc21 [V, 1-hydroxy-4,5-benz-2.6-dioxaphosphorinanone-(3)-1-oxide] | – | rate of hydrolysis kobs ([4]; 20 mM MOPS, pH 7.5, 25° C.): 1.7e-05 s⁻¹
6 | O=C(OP(=O)(O)c1ccc2ccccc2c1)c1ccccc1 [Compound XX] | 0.0551(115 ± 5) s^−1 M^−1 | –
7 | CCCCCCOP(=O)(O)OC(=O)c1ccccc1 [Compound XVII] | 0.125(≦1) s^−1 M^−1 | –
8 | O=C(OP(=O)(O)Oc1ccccc1)c1ccc(-c2ccccc2)cc1 [Compound XXVII] | ≤ 3 s⁻¹ M⁻¹ | –
9 | Cc1cccc(C)c1C(=O)OP(=O)(O)Oc1ccccc1 [Compound XXVIII] | (20.9 ± 1.5) s^−1 M^−1 | –
10 | O=C(/C=C/c1ccccc1)OP(=O)(O)Oc1ccccc1 [Compound XXV] | ≤ 1 s⁻¹ M⁻¹ | –
11 | O=C(OP(=O)(O)c1cccc([N+](=O)[O-])c1)c1ccccc1 [Compound XIX] | 0.0179(65 ± 19) s^−1 M^−1 | –
12 | O=C(Cc1ccccc1)NCC(=O)OP(=O)(O)Oc1ccccc1 [XXXII] | – | spontaneous hydrolysis, in words [4]: more rapidly hydrolyzed
13 | O=C(OP(=O)(O)c1ccc(-c2ccccc2)cc1)c1ccccc1 [Compound XXI] | 0.117(89 ± 4) s^−1 M^−1 | –
14 | O=C(OP(=O)(O)Oc1ccc2ccccc2c1)c1ccccc1 [Compound XXXI] | ≤ 1 s⁻¹ M⁻¹ | –
15 | O=C(NCP(=O)(O)OC(=O)c1ccccc1)OCc1ccccc1 [XXXIII] | (5.9 ± 0.3 × 10^4) s^−1 M^−1 | spontaneous hydrolysis, in words [4]: more rapidly hydrolyzed; ki [2]: (130 ± 8) s^−1 M^−1
16 | COP(=O)(O)OC(=O)c1ccccc1 [VIII] | – | fold reduction in the MIC of the antibiotic agent ([5]; Cefoxitin): 2 fold; fold reduction in the MIC of the antibiotic agent ([5]; Ceftriaxone): 2 fold; fold reduction in the MIC of the antibiotic agent [6]: 0 fold
17 | O=C(OP(=O)(O)Oc1ccc([N+](=O)[O-])cc1)c1ccccc1 [Compound XI] | ≤ 2 s⁻¹ M⁻¹ | IC50 [3]: 39 µM
18 | O=C(OP(=O)(O)Oc1ccc2ccccc2c1)c1cc2ccccc2s1 [Compound XXX] | 1813 ± 3 s⁻¹ M⁻¹ | –
19 | O=C(OP(=O)(O)Oc1cccc2ccccc12)c1ccccc1 [Compound XII] | – | IC50 [3]: 8 µM
20 | COc1ccccc1C(=O)OP(=O)(O)Oc1ccccc1 [Compound XXIX] | 3.6 ± 0.4 s⁻¹ M⁻¹ | –
21 | O=C(OP(=O)(O)c1ccc([N+](=O)[O-])cc1)c1ccccc1 [Compound XVIII] | 0.0125(25 ± 3) s^−1 M^−1 | –
22 | O=C(OP(=O)(O)OC(=O)c1ccccc1)c1ccccc1 [XIV, sodium dibenzoyl phosphate] | – | ki [2]: 0.120(14.3) s^−1 M^−1
23 | O=C1C=C(c2ccccc2)OP(=O)(O)O1 [Compound XVI] | – | fold reduction in the MIC of the antibiotic agent [7]: 2 fold

From patent publication US7205285B2, “Acyl phosphonate inhibitors of β-lactamases” (Methylgene, Inc., priority 1997, dated 2007)
